Experimental findings from patent US11702409B2, “Pyrazolyl derivatives useful as anti-cancer agents” (NOVARTIS AG, priority 2019, dated 2023) are described below.

This experiment deals with KRasG12C (M1-K169, biotinylated on the N-terminus) (Homo sapiens (Human), UniProt P01116, G12C). The experiment is described as follows: Covalent competition assay (scintillation proximity assay, competition with radiolabeled covalent probe Compound B). In kind it is binding. The following applies: in vitro KRASG12C activity; 10 nM KRasG12C:GDP, 25 nM radio-ligand and 475 nM unlabelled ligand, incubated 2 hours; read-out: Covalent Competition Assay IC50. The procedure:
The cells were lysed by 4 passages through an Avestin Emulsiflex at about 20000 psi and insoluble debris removed by centrifugation and filtered through a 0.45 μm Durapore membrane (Millipore). […] The protein in the flow through was subjected to a final polishing step on a HiLoad 16/60 Superdex 200 prep grade size-exclusion column pre-equilibrated with SEC-buffer (20 mM HEPES pH 7.4, 150 mM NaCl, 5 mM MgCl2, 1 μM GDP).
A scintillation proximity assay (SPA) was used to determine the potency of the compounds. This assay measures the ability of the test compound to compete with the radiolabeled covalent probe for binding to and covalently modify KRASG12C.
A serial dilution of the compounds to be tested is mixed with a fixed concentration of the radiolabeled covalent probe before incubation with KRASG12C:GDP as described below.
The reaction was started by addition of KRasG12C (M1-K169, biotinylated on the N-terminus) to the compounds and incubated for 2 hours with continuous agitation allowing for full modification of KRasG12C with probe or test compounds. […] The assay buffer contained 20 mM Tris-HCl pH 7.5 (Invitrogen), 150 mM NaCl (Sigma Aldrich), 0.1 mM MgCl2 (Sigma Aldrich), and 0.01% Tween-20 (Sigma Aldrich).
Evaluation was carried out using assay data analysis software (such as the standard Novartis in-house Helios software application, Novartis Institutes for BioMedical Research, unpublished) using the methods described in Formenko et al., Robust Regression for high-throughput screening.
Evaluation can also be carried out using commercially available software which is designed to derive IC50 values using 4-parameter fits (e.g. GraphPad Prism, XL fit).
Consider `C=CC(=O)N1CC2(CC(n3nc(-c4ccc5c(cnn5C)c4)c(-c4c(Cl)c(C)cc5[nH]ncc45)c3C)C2)C1` (single isomer, unassigned) [Example 1a], for which the IC50 was found to be 0.017 µM. For the molecule `C=CC(=O)N1CC2(CC(n3nc(C4=CCC(F)(F)CC4)c(-c4c(Cl)c(C)cc5[nH]ncc45)c3C)C2)C1` (single isomer, unassigned) [Example 3a], the IC50 was 0.465 µM. As for `C=CC(=O)N1CC2(CC(n3nc(C4=CCC(F)(F)CC4)c(-c4c(Cl)c(C)cc5[nH]ncc45)c3C)C2)C1` (single isomer, unassigned) [Example 3b], the IC50 came to 1.2 µM. As to `C=CC(=O)N1CC2(CC(n3nc(-c4ccc(CN5CCCS5(=O)=O)cc4)c(-c4c(Cl)c(C)cc5[nH]ncc45)c3C)C2)C1` (single isomer, unassigned) [Example 5a], the IC50 was determined as 0.043 µM.

Regarding `C=CC(=O)N1CC2(CC(n3nc(-c4ccc(CN5CCCS5(=O)=O)cc4)c(-c4c(Cl)c(C)cc5[nH]ncc45)c3C)C2)C1` (single isomer, unassigned) [Example 5b], the IC50 was determined as 15 µM. The result for `C=CC(=O)N1CC2(CC(n3nc(-c4ccc(=O)n(C)c4)c(-c4c(Cl)c(C)cc5[nH]ncc45)c3C)C2)C1` (single isomer, unassigned) [Example 6a] reads 1.2 µM. In the case of `C=CC(=O)N1CC2(CC(n3nc(-c4ccc(=O)n(C)c4)c(-c4c(Cl)c(C)cc5[nH]ncc45)c3C)C2)C1` (single isomer, unassigned) [Example 6b] it was above 50 µM.

Regarding `C=CC(=O)N1CC2(CC(n3nc(-c4ccc(-n5nccc5N)nc4)c(-c4c(Cl)c(C)cc5[nH]ncc45)c3C)C2)C1` (single isomer, unassigned) [Example 7a], the IC50 was 0.162 µM. Turning to `C=CC(=O)N1CC2(CC(n3nc(-c4ccc(-n5nccc5N)nc4)c(-c4c(Cl)c(C)cc5[nH]ncc45)c3C)C2)C1` (single isomer, unassigned) [Example 7b], the IC50 was above 5 µM.

As to `C=CC(=O)N1CC2(CC(n3nc(-c4cnc5c(ccn5C)c4)c(-c4c(Cl)c(C)cc5[nH]ncc45)c3C)C2)C1` (single isomer, unassigned) [Example 8a], the IC50 was found to be 0.066 µM. With `C=CC(=O)N1CC2(CC(n3nc(-c4cnc5c(ccn5C)c4)c(-c4c(Cl)c(C)cc5[nH]ncc45)c3C)C2)C1` (single isomer, unassigned) [Example 8b], the IC50 was 2.9 µM.

In the case of `C=CC(=O)N1CC2(CC(n3nc(-c4ccnc(C#N)c4)c(-c4c(Cl)c(C)cc5[nH]ncc45)c3C)C2)C1` (single isomer, unassigned) [Example 9a], the IC50 was found to be 0.743 µM.

For `C=CC(=O)N1CC2(CC(n3nc(-c4ccnc(C#N)c4)c(-c4c(Cl)c(C)cc5[nH]ncc45)c3C)C2)C1` (single isomer, unassigned) [Example 9b], the IC50 is above 50 µM. As for `C=CC(=O)N1CC2(CC(n3nc(-c4cncc(C#N)c4)c(-c4c(Cl)c(C)cc5[nH]ncc45)c3C)C2)C1` (single isomer, unassigned) [Example 10a], the IC50 was 1.2 µM.

As for `C=CC(=O)N1CC2(CC(n3nc(-c4cncc(C#N)c4)c(-c4c(Cl)c(C)cc5[nH]ncc45)c3C)C2)C1` (single isomer, unassigned) [Example 10b], the IC50 was above 50 µM. Turning to `C=CC(=O)N1CC2(CC(n3nc(-c4ccc(C#N)nc4)c(-c4c(Cl)c(C)cc5[nH]ncc45)c3C)C2)C1` (single isomer, unassigned) [Example 11a], the IC50 was determined as 0.973 µM.

For `C=CC(=O)N1CC2(CC(n3nc(-c4ccc(C#N)nc4)c(-c4c(Cl)c(C)cc5[nH]ncc45)c3C)C2)C1` (single isomer, unassigned) [Example 11b], the IC50 is above 50 µM. `C=CC(=O)N1CC2(CC(n3nc(-c4ccc5[nH]ncc5c4)c(-c4c(Cl)c(C)cc5[nH]ncc45)c3C)C2)C1` (single isomer, unassigned) [Example 12a]: the IC50 came out at 0.024 µM. For `C=CC(=O)N1CC2(CC(n3nc(-c4ccc5[nH]ncc5c4)c(-c4c(Cl)c(C)cc5[nH]ncc45)c3C)C2)C1` (single isomer, unassigned) [Example 12b], the IC50 was found to be 6.1 µM. In the case of `C=CC(=O)N1CC2(CC(n3nc(-c4ccc(N5CCN(C)C5=O)cc4)c(-c4c(Cl)c(C)cc5[nH]ncc45)c3C)C2)C1` (single isomer, unassigned) [Example 13a], the IC50 is 0.018 µM.

`C=CC(=O)N1CC2(CC(n3nc(-c4ccc(N5CCN(C)C5=O)cc4)c(-c4c(Cl)c(C)cc5[nH]ncc45)c3C)C2)C1` (single isomer, unassigned) [Example 13b]: the IC50 is 14.8 µM. In the case of `C=CC(=O)N1CC2(CC(n3nc(-c4ccc5c(cnn5CCN(C)C)c4)c(-c4c(Cl)c(C)cc5[nH]ncc45)c3C)C2)C1` (single isomer, unassigned) [Example 15a], the IC50 is 0.016 µM. In the case of `C=CC(=O)N1CC2(CC(n3nc(-c4ccc5c(cnn5CCN(C)C)c4)c(-c4c(Cl)c(C)cc5[nH]ncc45)c3C)C2)C1` (single isomer, unassigned) [Example 15b], the IC50 was found to be 4.8 µM. Consider `C=CC(=O)N1CC2(CC(n3nc(-c4ccc5nn(CCN(C)C)cc5c4)c(-c4c(Cl)c(C)cc5[nH]ncc45)c3C)C2)C1` (single isomer, unassigned) [Example 16a], for which the IC50 is 0.011 µM. For `C=CC(=O)N1CC2(CC(n3nc(-c4ccc5nn(CCN(C)C)cc5c4)c(-c4c(Cl)c(C)cc5[nH]ncc45)c3C)C2)C1` (single isomer, unassigned) [Example 16b], the IC50 worked out at 23.4 µM.

Turning to `C=CC(=O)N1CC2(CC(n3nc(-c4ccc5c(cnn5CCN5CCOCC5)c4)c(-c4c(Cl)c(C)cc5[nH]ncc45)c3C)C2)C1` (single isomer, unassigned) [Example 17a], the IC50 worked out at 0.013 µM. The result for `C=CC(=O)N1CC2(CC(n3nc(-c4ccc5c(cnn5CCN5CCOCC5)c4)c(-c4c(Cl)c(C)cc5[nH]ncc45)c3C)C2)C1` (single isomer, unassigned) [Example 17b] reads 14.6 µM.

Take `C=CC(=O)N1CC2(CC(n3nc(-c4cccnc4)c(-c4c(Cl)ccc5[nH]ncc45)c3C)C2)C1` (single isomer, unassigned) [Example 19a]: the IC50 was 1.9 µM. `C=CC(=O)N1CC2(CC(n3nc(-c4cccnc4)c(-c4c(Cl)ccc5[nH]ncc45)c3C)C2)C1` (single isomer, unassigned) [Example 19b]: the half-inhibitory concentration (IC50) is above 50 µM. Regarding `C=CC(=O)N1CC2(CC(n3nc(-c4cnc(N)c(F)c4)c(-c4c(Cl)c(C)cc5[nH]ncc45)c3C)C2)C1` (single isomer, unassigned) [Example 20a], the IC50 is 0.148 µM. As for `C=CC(=O)N1CC2(CC(n3nc(-c4cnc(N)c(F)c4)c(-c4c(Cl)c(C)cc5[nH]ncc45)c3C)C2)C1` (single isomer, unassigned) [Example 20b], the IC50 amounted to 12.5 µM. On to `C=CC(=O)N1CC2(CC(n3nc(-c4ccc5c(c4)CN(C)C(=O)C5)c(-c4c(Cl)c(C)cc5[nH]ncc45)c3C)C2)C1` (single isomer, unassigned) [Example 21a], for which the IC50 amounted to 0.06 µM. As to `C=CC(=O)N1CC2(CC(n3nc(-c4ccc5c(c4)CN(C)C(=O)C5)c(-c4c(Cl)c(C)cc5[nH]ncc45)c3C)C2)C1` (single isomer, unassigned) [Example 21b], the IC50 amounted to 15 µM. The result for `C=CC(=O)N1CC2(CC(n3nc(-c4ccc5c(c4)CCN5C(C)=O)c(-c4c(Cl)c(C)cc5[nH]ncc45)c3C)C2)C1` (single isomer, unassigned) [Example 22a] reads 0.023 µM; that for `C=CC(=O)N1CC2(CC(n3nc(-c4ccc5c(c4)CCN5C(C)=O)c(-c4c(Cl)c(C)cc5[nH]ncc45)c3C)C2)C1` (single isomer, unassigned) [Example 22b], above 50 µM; that for `C=CC(=O)N1CC2(CC(n3nc(-c4ccc5ncnn5c4)c(-c4c(Cl)c(C)cc5[nH]ncc45)c3C)C2)C1` (single isomer, unassigned) [Example 23a], 0.564 µM. As for `C=CC(=O)N1CC2(CC(n3nc(-c4ccc5ncnn5c4)c(-c4c(Cl)c(C)cc5[nH]ncc45)c3C)C2)C1` (single isomer, unassigned) [Example 23b], the IC50 is 13.9 µM. Consider `C=CC(=O)N1CC2(CC(n3nc(-c4ccc5c(c4)CC(=O)N5C)c(-c4c(Cl)c(C)cc5[nH]ncc45)c3C)C2)C1` (single isomer, unassigned) [Example 24a], for which the IC50 worked out at 0.071 µM. With `C=CC(=O)N1CC2(CC(n3nc(-c4ccc5c(c4)CC(=O)N5C)c(-c4c(Cl)c(C)cc5[nH]ncc45)c3C)C2)C1` (single isomer, unassigned) [Example 24b], the IC50 was above 50 µM. In the case of `C=CC(=O)N1CC2(CC(n3nc(-c4ccc5cnccc5c4)c(-c4c(Cl)c(C)cc5[nH]ncc45)c3C)C2)C1` (single isomer, unassigned) [Example 25a] it was 0.041 µM; in that of `C=CC(=O)N1CC2(CC(n3nc(-c4ccc5cnccc5c4)c(-c4c(Cl)c(C)cc5[nH]ncc45)c3C)C2)C1` (single isomer, unassigned) [Example 25b], 7.8 µM.

One may read the IC50 as the concentration at which inhibition is half-maximal.
